Measured values published in patent US5552421A, “Leukotriene biosynthesis inhibitors” (Boehringer Ingelheim Pharmaceuticals, Inc., priority 1995, dated 1996).

Each compound was assayed on LTB4 biosynthesis in human polymorphonuclear leukocytes (PMNs) (assay: Inhibition of LTB4 biosynthesis in human polymorphonuclear leukocytes (PMNs)). Details: Homo sapiens, Leukocyte, Table 1A, Esters; LTB4, A23187-stimulated human PMNs.
Format: cell-based
Experimental: Inhibition of LTB4, biosynthesis in human polymorphonuclear leukocytes (PMNs)
The inhibition of leukotriene biosynthesis is measured by determining whether and to what extent test compounds can inhibit LTB4 production from endogenous arachidonic acid in human peripheral blood leukocytes.
To 48-well tissue culture plates was added a solution of the test compound followed by addition of human polymorphonuclear leukocytes isolated from peripheral blood at a density of 1.5×10^6 cells/well. Culture plates were preincubated for fifteen minutes with shaking at 28° C. Cells were stimulated with calcium ionophore A23187 at a final concentration of 2.5 μM for an additional ten minutes. The reaction was terminated by the addition of an EGTA solution (10 mM final concentration)followed by centrifugation at 1500 rpm at 10° C. Supernatants were stored at -70° C. LTB4 levels were determined by RIA using a commercially available kit. Nonlinear regression analysis was used to calculate. IC50 values.
The following tables show % inhibition of LTB4 biosynthesis by compounds of the invention at test concentrations indicated, with the determined IC50 shown in μM.

Structure (SMILES) | IC50 [nM]
CCOC(=O)C(Cc1ccccc1)N(C)c1nc2ccccc2s1 (centres unmarked) [Compound 36] | 1000
CCOC(=O)C(CCc1ccccc1)Nc1nc2ccccc2s1 (centres unmarked) [Compound 37] | 520
CCOC(=O)C(C)(Cc1ccccc1)Nc1nc2ccccc2s1 (centres unmarked) [Compound 38] | 200
CCOC(=O)C(C)(Cc1ccccc1)Nc1nc2ccccc2o1 (centres unmarked) [Compound 39] | 76

Same assay, conditions: Homo sapiens, Leukocyte, Table 2, Amides; values with <: see footnote d, Tables 1 and 1A

Structure (SMILES) | IC50 [nM]
NC(=O)[C@H](Cc1ccccc1)Nc1nc2ccccc2s1 [Compound 40] | 3000
CN(C)C(=O)C(Cc1ccccc1)Nc1nc2ccccc2s1 (centres unmarked) [Compound 41] | 3000
CCNC(=O)C(Cc1ccccc1)Nc1nc2ccc(C(C)C)cc2s1 (centres unmarked) [Compound 42] | 3000
CON(C)C(=O)[C@H](Cc1ccccc1)Nc1nc2ccccc2o1 [Compound 43] | < 1000
CNC(=O)[C@H](CC1CCCCC1)Nc1nc2cc(C)ccc2o1 [Compound 44, L-N-(5-Methylbenzoxazol-2-yl)cyclohexylalanine-N'-methylamide] | 72
CON(C)C(=O)[C@H](CC1CCCCC1)Nc1nc2cc(C)ccc2o1 [Compound 45] | 30
Cc1ccc2oc(N[C@@H](CC3CCCCC3)C(=O)N3CCCCC3)nc2c1 [Compound 46] | 190

Same assay, conditions: Homo sapiens, Leukocyte, Table 3, Phenyl; values with <: see footnote d, Table 1

Structure (SMILES) | IC50 [nM]
c1ccc(CC(Nc2nc3ccccc3s2)c2ccccc2)cc1 (centres unmarked) [Compound 47] | 160
c1ccc(CC(Nc2nc3ccccc3o2)c2ccccc2)cc1 (centres unmarked) [Compound 50] | < 1000
CC(C)c1ccc2oc(NC(CC3CCCCC3)c3ccccc3)nc2c1 (centres unmarked) [Compound 54] | 6.3
Clc1ccc(C(CC2CCCCC2)Nc2nc3ccccc3o2)cc1 (centres unmarked) [Compound 55] | 300
Cc1cccc(C(CC2CCCCC2)Nc2nc3ccccc3o2)c1 (centres unmarked) [Compound 57] | 300
Clc1ccccc1C(CC1CCCCC1)Nc1nc2ccccc2o1 (centres unmarked) [Compound 58] | 80
Ic1ccc2oc(NC(CC3CCCCC3)c3ccccc3)nc2c1 (centres unmarked) [Compound 59] | 13
CS(=O)(=O)Nc1ccc2oc(NC(CC3CCCCC3)c3ccccc3)nc2c1 (centres unmarked) [Compound 60] | 160
CC(=O)Nc1ccc2oc(NC(CC3CCCCC3)c3ccccc3)nc2c1 (centres unmarked) [Compound 61] | 76
CNC(=O)Nc1ccc2oc(NC(CC3CCCCC3)c3ccccc3)nc2c1 (centres unmarked) [Compound 62] | < 1000
O=C(O)c1ccc2oc(NC(CC3CCCCC3)c3ccccc3)nc2c1 (centres unmarked) [Compound 63] | 190
NC(=O)c1ccc2oc(NC(CC3CCCCC3)c3ccccc3)nc2c1 (centres unmarked) [Compound 64] | < 1000
CN(C)C(=O)c1ccc2oc(NC(CC3CCCCC3)c3ccccc3)nc2c1 (centres unmarked) [Compound 65] | 170
O=C(O)c1ccc2nc(NC(CC3CCCCC3)c3ccccc3)sc2c1 (centres unmarked) [Compound 66] | 220
N#Cc1ccc2oc(NC(CC3CCCCC3)c3ccccc3)nc2c1 (centres unmarked) [Compound 67] | 150
Fc1ccc(C(CC2CCCCC2)Nc2nc3ccccc3o2)cc1 (centres unmarked) [Compound 71] | 170

Same assay, conditions: Homo sapiens, Leukocyte, Table 4, Pyridyl; values with <: see footnote d, Table 1

Structure (SMILES) | IC50 [nM]
c1cncc(C(CC2CCCCC2)Nc2nc3ccccc3o2)c1 (centres unmarked) [Compound 80] | 55
Cc1ccc2oc(NC(CC3CCCCC3)c3cccnc3)nc2c1 (centres unmarked) [Compound 82] | 24
Cc1ccc2oc(NC(CC3CCCCC3)c3ccncc3)nc2c1 (centres unmarked) [Compound 83] | 190
O=[N+]([O-])c1ccc2nc(NC(CC3CCCCC3)c3cccnc3)oc2c1 (centres unmarked) [Compound 84] | 35
O=[N+]([O-])c1ccc2oc(NC(CC3CCCCC3)c3cccnc3)nc2c1 (centres unmarked) [Compound 85] | 24

Same assay, conditions: Leukocyte; Table 1, Esters; LTB4, A23187-stimulated human PMNs; values with < (footnote d): greater than 50% (504 [sic]) inhibition at this concentration, IC50 not characterized further

Structure (SMILES) | IC50 [nM]
CCOC(=O)C(Cc1csc(C)n1)Nc1nc2cc(OC)ccc2o1 (centres unmarked) [Compound 27] | < 300
CCOC(=O)C(Cc1nccs1)Nc1nc2cc(Cl)ccc2o1 (centres unmarked) [Compound 28] | < 300
CCOC(=O)C(Cc1csc(C)n1)Nc1nc2cc(Cl)ccc2o1 (centres unmarked) [Compound 29] | 87
CCOC(=O)C(Cc1cccnc1)Nc1nc2cc(C(C)C)ccc2o1 (centres unmarked) [Compound 30] | 190
CCOC(=O)C(Cc1ccncc1)Nc1nc2cc(C(C)C)ccc2o1 (centres unmarked) [Compound 31] | < 100
CCOC(=O)C(Cc1csc(C)n1)Nc1nc2cc(C(C)C)ccc2o1 (centres unmarked) [Compound 33] | < 30
